Measured values published in patent US12319929B2, “Compositions and methods for the treatment of Parkinson's disease” (VOYAGER THERAPEUTICS, INC., priority 2018, dated 2025).

Test system: patients with motor response fluctuations
Assay: UPDRS III AUC response to threshold and suprathreshold IV levodopa infusion
Format: in vivo, human
Conditions: Baseline before AAV2-hAADC
Protocol: On sequential days, patients received either a threshold (0.6 mg/mL; low-dose) or suprathreshold (1.2 mg/mL; high-dose) infusion of IV levodopa dosed at 1 mL/kg/hr for 2 hours. The order and threshold of IV levodopa dosing was randomized and double-blinded (LHLH, LHHL, HLHL, HLLH).
Oral carbidopa (25 mg) was administered 1-2 hours before, during, and 1-2 hours after the infusion. Participants' motor response was measured by UPDRS III (time to 30% change and duration of 30% responses); bradykinesia was measured by finger tapping rate; and dyskinesia was measured by Abnormal Involuntary Movement Scale (AIMS) scoring. Pharmacokinetics were assessed every 30 minutes after administration of IV levodopa.
Results for Group 1 are shown in FIG. 12a: results for Group 2 are shown in FIG. 12b; and results for Group 3 are shown in FIG. 12c.

N[C@@H](Cc1ccc(O)c(O)c1)C(=O)O [IV Levodopa, L-3,4-dihydroxyphenylalanine]
UPDRS III AUC, mean (standard error) (Suprathreshold (1.2 mg/kg/hr) IV Levodopa, Group 1 (N = 5)): −72.8 (13.1)
UPDRS III AUC, mean (standard error) (Suprathreshold (1.2 mg/kg/hr) IV Levodopa, Group 2 (N = 5)): −45.0 (13.5)
UPDRS III AUC, mean (standard error) (Suprathreshold (1.2 mg/kg/hr) IV Levodopa, Group 3 (N=3)): −41.1 (13.8)
UPDRS III AUC, mean (standard error) (Threshold (0.6 mg/kg/hr) IV Levodopa, Group 1 (N = 5)): −22.1 (9.7)
UPDRS III AUC, mean (standard error) (Threshold (0.6 mg/kg/hr) IV Levodopa, Group 2 (N = 5)): −21.8 (5.9)
UPDRS III AUC, mean (standard error) (Threshold (0.6 mg/kg/hr) IV Levodopa, Group 3 (N=3)): −16.1 (11.4)
